Laboratory results: patent US11319565B2, “Method for preparing lipoamino acids based on deep eutectic solvents” (Jiangnan University, priority 2019, dated 2022)

Assays:
[1] = CMC value determined by conductivity method; format: physicochemical; conditions: aqueous solution
Description: The CMC value is determined by a conductivity method: The relationship between the conductivity of an ionic surfactant aqueous solution and the concentration is used to draw a ∧m-C^1/2 curve, and the CMC value is derived from the turning point of the curve.
∧m=K/C. The unit of ∧m is S·m^2/mol, and the unit of C is mol/L.
For a strong electrolyte, if the temperature is constant, the molar conductivity ∧m of the strong electrolyte solution has a linear relationship with the concentration of the solution c^1/2 in an extremely low concentration range. For a colloidal electrolyte, the conductivity and molar conductivity of a dilute solution change in the same way as the strong electrolyte.

[2] = Substrate solubility in natural deep eutectic solvent (polarizing microscope); format: physicochemical; conditions: in natural deep eutectic solvent C-Gly (choline chloride-glycerin), 60° C., 200 rpm
Description: 10 g of natural deep eutectic solvent (C-Gly) was accurately weighed and placed in a thermostatic shaking water bath at 60° C. After the temperature was constant, 10 mg of lauric acid was weighed and added thereto, and the mixture was shaken at 200 rpm for 30 min. Then a drop was taken out by a capillary and detected under a polarizing microscope. […] The final substrate solubility was calculated according to the following formula: S=mt×10/1000 (1).
Herein, S is the solubility and mt is the total addition amount of substrate.

CCCCCCCCCCCC(=O)NCC(=O)O [lauroyl glycine]
CMC value [1]: 0.0044 mol/L

Gemini lauroyl lysine [Gemini lauroyl amino acid]
CMC value [1]: 0.0044 mol/L

CCCCCCCCCCCC(=O)O [lauric acid]
solubility [2]: 24.98 g/100 g
